Results as given in US20220120736A1, “METHODS AND ASSAYS FOR MODULATING GENE TRANSCRIPTION BY MODULATING CONDENSATES” (Whitehead Institute for Biomedical Research, priority 2018, published 2022).

Key:
[1] = test system: MED1 signal at the MYC locus in MCF7 cells; test: Immunofluorescence for MED1 with DNA FISH at the MYC locus; type: cell-based, human; settings: MCF7 cells estrogen-deprived 3 days; 10 uM estradiol, or 10 uM estradiol and 5 uM 4-hydroxytamoxifen, 45 minutes
Experimental: Human tumor tissues sliced at 10 μm thickness or cells grown on Poly-L-Ornithine coated glass were washed once with PBS and fixed in 4% Paraformaldehyde, PFA, (VWR, BT140770) for 10 minutes. After three washes in PBS for 5 min, cells were stored at 4° C. or transferred to a humidifying chamber and processed for immunofluorescence. Permeabilization of cells was performed using 0.5% triton X100 (Sigma Aldrich, X100) in PBS for 10 minutes followed by three PBS washes. Cells were blocked with 4% IgG-free Bovine Serum Albumin, BSA, (VWR, 102643-516) for 30 minutes and the indicated primary antibody (ER ab32063, MED1 ab64965) was added at a concentration of 1:500 in 4% IgG-free Bovine Serum Albumin for 4-16 hours. […]
For analysis of RNA/DNA FISH with immunofluorescence, custom Python scripts were written to process and analyze 3D image data gathered in FISH and IF channels. […] These FISH foci were filtered by various criteria, including size (minimum 100 voxels), circularity of a max z-projection (circularity=4pi*area/perimeter^2; 0.7), and being present in a nucleus (determined by nuclear mask described above). […] The IF signal centered at FISH foci for each FISH and IF pair are then combined and an average intensity projection is calculated, providing averaged data for IF signal intensity within a l×l square centered at FISH foci. […]

[2] = test system: MYC RNA expression in MCF7 cells; test: RT-qPCR of MYC RNA expression; type: cell-based, human; settings: MCF7 cells estrogen-deprived 3 days; 10 nM estrogen, or 10 nM estrogen and 5 uM 4-hydroxytamoxifen, 24 hours; normalized to GAPDH
Experimental: RNA was isolated by AllPrep Kit (Qiagen 80204) followed by cDNA synthesis using High-Capacity cDNA Reverse Transcription Kit (Applies Biosystems 4368814). qPCR was performed in biological and technical triplicate using Power SYBR Green mix (Life Technologies #4367659) on a QuantStudio 6 System (Life Technologies). The following oligos was used in the qPCR; Myc fwd […] (SEQ ID NO: 255), MYC rev […] (SEQ ID NO: 256), GAPDH fwd […] (SEQ ID NO: 257), GAPDH rev […] (SEQ ID NO: 258). Fold change was calculated and MYC expression values were normalized to GAPDH expression.

[3] = test system: ER Y537S, ER D538G, ER-YAP1, ER-PCDH11X condensates with MED1; test: In vitro droplet formation assay, mutant ER GFP fusion proteins and MED1; type: biochemical; settings: all four mutant ER proteins; ligand 100 uM
Experimental: Recombinant GFP or mCherry fusion proteins were concentrated and desalted to an appropriate protein concentration and 125 mM NaCl using Amicon Ultra centrifugal filters (30K MWCO, Millipore). Recombinant proteins were added to solutions at varying concentrations with indicated final salt and 10% PEG-8000 as crowding agent in Droplet Formation Buffer (50 mM Tris-HCl pH 7.5, 10% glycerol, 1 mM DTT). The protein solution was immediately loaded onto a homemade chamber comprising a glass slide with a coverslip attached by two parallel strips of double-sided tape. Slides were then imaged with an Andor confocal microscope with a 150× objective. Unless indicated, images presented are of droplets settled on the glass coverslip. […] One microliter of this concentrated stock was used in a 10 uL droplet formation reaction to achieve a final concentration of 100 uM. To calculate enrichment for the in vitro droplet assay, droplets were defined as a region of interest in FIJI by the MED1 scaffold channel, and the maximum signal of the ER client within that droplet was determined. Alternatively, maximum signal of MED1 was measured. In all cases, the maximum signal was divided by the background client signal in the image to generate a Cin/out.

| Compound | MED1 signal at MYC [1] | MYC RNA expression [2] | Condensate formation of mutant ER proteins with MED1 [3] |
| --- | --- | --- | --- |
| C[C@]12CC[C@@H]3c4ccc(O)cc4CC[C@H]3[C@@H]1CC[C@@H]2O [estrogen, B-Estradiol] | enhanced | increase | estrogen-independent |
| CC/C(=C(\c1ccccc1)c1ccc(OCCN(C)C)cc1)c1ccccc1 [tamoxifen] | reduced | reduced | tamoxifen-insensitive |
